From patent US11590139B2, “Substituted aminopurine compounds, compositions thereof, and methods of treatment therewith” (Signal Pharmaceuticals, LLC, priority 2014, dated 2023)
Read-outs that look alike come from different tables or passages of the source.

Tested on: Lox-IMVI melanoma cell line
Assay: Lox-IMVI anti-proliferative assay (growth inhibition, Cell Titer-Glo)
Type: cell-based, human
Method in brief: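 Luminescence from cellular ATP measured viability at compound addition and again after 72 h of exposure (37 °C, 5% CO2, RPMI + 10% FBS). Doses spanned 0.5 nM to 10 μM in ten 3-fold steps with 0.2% DMSO. Values were fitted as % of DMSO-treated cells by sigmoidal dose-response.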

[1] = Homo sapiens, Lox-IMVI melanoma cell line, anti-proliferative assay, read-out: Activity (IC50 activity level)
[2] = Homo sapiens, Lox-IMVI anti-proliferative assay, IC50 activity level, read-out: Activity
[3] = Homo sapiens, IC50 activity level in the cell-based Lox-IMVI anti-proliferative assay, read-out: Activity

Row | IC50 [3] [nM] | SMILES | further results
1 |  | C[C@]1(C(N)=O)CC[C@@H](n2c(Nc3c(F)cc(F)cc3Cl)nc3cnc(N[C@H]4CCC[C@@H](O)C4)nc32)CC1 [Example 626, (1R,4s)-4-(8-(2-chloro-4,6-difluorophenylamino)-2-((1S,3R)-3-hydroxycyclohexylamino)-9H-purin-9-yl)-1-methylcyclohexanecarboxamide] | IC50 [1]: 500 to 1000 nM
2 |  | NC(=O)[C@H]1CC[C@@H](n2c(Nc3c(Cl)cc(F)cc3Cl)nc3cnc(N[C@@H]4CCCC[C@H]4O)nc32)CC1 [Example 469, (1S,4s)-4-(8-(2,6-dichloro-4-fluorophenylamino)-2-((1R,2R)-2-hydroxycyclohexylamino)-9H-purin-9-yl)cyclohexanecarboxamide] | IC50 [2]: > 1000 nM
3 | > 1000 | CC(C)(C)OC(=O)N1CCC[C@@H](Nc2ncc3nc(Nc4c(F)cc(Cl)cc4F)n([C@H]4CC[C@@H](C(N)=O)CC4)c3n2)C1 [Example 162, (R)-tert-butyl 3-(9-((1s,4S)-4-carbamoylcyclohexyl)-8-(4-chloro-2,6-difluorophenylamino)-9H-purin-2-ylamino)piperidine-1-carboxylate] | 
4 | 250 to 500 | NC(=O)[C@H]1CC[C@@H](n2c(Nc3ccc(Cl)c(Cl)c3F)nc3cnc(NC4CCOCC4)nc32)CC1 [Example 112, (1s,4s)-4-(8-(3,4-dichloro-2-fluorophenylamino)-2-(tetrahydro-2H-pyran-4-ylamino)-9H-purin-9-yl)cyclohexanecarboxamide] | 
5 | < 250 | NC(=O)[C@H]1CC[C@@H](n2c(Nc3c(Cl)cc(Cl)cc3Cl)nc3cnc(N[C@H]4CCOC[C@H]4F)nc32)CC1 [Example 303, (1R,4s)-4-(2-((3S,4S)-3-fluorotetrahydro-2H-pyran-4-ylamino)-8-(2,4,6-trichlorophenylamino)-9H-purin-9-yl)cyclohexanecarboxamide] | 
6 |  | CNC(=O)N1CCC[C@@H](Nc2ncc3nc(Nc4c(Cl)cc(C#N)cc4Cl)n([C@H]4CC[C@@H](C(N)=O)CC4)c3n2)C1 [Example 707, (R)-3-(9-((1s,4S)-4-carbamoylcyclohexyl)-8-(2,6-dichloro-4-cyanophenylamino)-9H-purin-2-ylamino)-N-methylpiperidine-1-carboxamide] | IC50 (Lox-IMVI melanoma cell line, anti-proliferative assay, read-out: Activity (IC50 activity level)): > 1000 nM
7 | > 1000 | NC(=O)[C@H]1CC[C@@H](n2c(Nc3c(Cl)cc(F)cc3Cl)nc3cnc(N[C@H]4C[C@H](O)C4)nc32)CC1 [Example 284, (1s,4s)-4-(8-(2,6-dichloro-4-fluorophenylamino)-2-((1r,3r)-3-hydroxycyclobutylamino)-9H-purin-9-yl)cyclohexanecarboxamide] | 
8 |  | NC(=O)[C@H]1CC[C@@H](n2c(Nc3ccc(Cl)c(F)c3F)nc3cnc(N[C@@H]4CCCC[C@H](O)C4)nc32)CC1 [Example 440, (1S,4s)-4-(8-(4-chloro-2,3-difluorophenylamino)-2-((1R,3S)-3-hydroxycycloheptylamino)-9H-purin-9-yl)cyclohexanecarboxamide] | IC50 [2]: > 1000 nM
9 |  | NC(=O)[C@H]1CC[C@@H](n2c(Nc3c(F)cc(F)cc3F)nc3cnc(N[C@@H]4CCO[C@H](CO)C4)nc32)CC1 [Example 446, (1S,4s)-4-(2-((2S,4R)-2-(hydroxymethyl)tetrahydro-2H-pyran-4-ylamino)-8-(2,4,6-trifluorophenylamino)-9H-purin-9-yl)cyclohexanecarboxamide] | IC50 [2]: > 1000 nM
10 | > 1000 | NC(=O)[C@H]1CC[C@@H](n2c(Nc3ccc(Cl)c(F)c3F)nc3cnc(N[C@H]4C[C@@H](O)C4)nc32)CC1 [Example 310, (1s,4s)-4-(8-(4-chloro-2,3-difluorophenylamino)-2-((1s,3s)-3-hydroxycyclobutylamino)-9H-purin-9-yl)cyclohexanecarboxamide] | 
11 | 250 to 500 | NC(=O)[C@H]1CC[C@@H](n2c(Nc3c(F)cccc3F)nc3cnc(N[C@@H]4CCOC[C@H]4F)nc32)CC1 [Example 275, (1S,4s)-4-(8-(2,6-difluorophenylamino)-2-((3S,4R)-3-fluorotetrahydro-2H-pyran-4-ylamino)-9H-purin-9-yl)cyclohexanecarboxamide] | 
12 |  | N#Cc1cc(F)c(Nc2nc3cnc(N[C@@H]4CCC(O)C4)nc3n2[C@H]2CC[C@@H](C(N)=O)CC2)c(Cl)c1 (stereo partly drawn) [Example 682, (1S,4s)-4-(8-(2-chloro-4-cyano-6-fluorophenylamino)-2-((1R,3R)-3-hydroxycyclopentylamino)-9H-purin-9-yl)cyclohexanecarboxamide] | IC50 [1]: < 250 nM
13 | > 1000 | C[C@@H](CO)Nc1ncc2nc(Nc3cc(Cl)ccc3F)n([C@H]3CC[C@@H](C(N)=O)CC3)c2n1 [Example 171, (1R,4s)-4-(8-(5-chloro-2-fluorophenylamino)-2-((S)-1-hydroxypropan-2-ylamino)-9H-purin-9-yl)cyclohexanecarboxamide] | 
14 |  | C[C@]1(C(N)=O)CC[C@@H](n2c(Nc3c(Cl)cc(Cl)cc3Cl)nc3cnc(N[C@@H]4CCC[C@@H](O)C4)nc32)CC1 [Example 619, (1S,4s)-4-(2-((1R,3R)-3-hydroxycyclohexylamino)-8-(2,4,6-trichlorophenylamino)-9H-purin-9-yl)-1-methylcyclohexanecarboxamide] | IC50 [1]: 500 to 1000 nM
15 | > 1000 | NC(=O)[C@H]1CC[C@@H](n2c(Nc3c(F)cccc3F)nc3cnc(N[C@@H]4CCC[C@H](O)C4)nc32)CC1 [Example 348, (1S,4s)-4-(8-(2,6-difluorophenylamino)-2-((1R,3S)-3-hydroxycyclohexylamino)-9H-purin-9-yl)cyclohexanecarboxamide] | 
16 | 500 to 1000 | Cc1cc(F)c(Nc2nc3cnc(NC4CCOCC4)nc3n2[C@H]2CC[C@@H](C(N)=O)CC2)c(F)c1 [Example 115, (1s,4s)-4-(8-(2,6-difluoro-4-methylphenylamino)-2-(tetrahydro-2H-pyran-4-ylamino)-9H-purin-9-yl)cyclohexanecarboxamide] | 
17 |  | CC(=O)N1CCC[C@@H](Nc2ncc3nc(Nc4c(F)cc(Cl)cc4Cl)n([C@H]4CC[C@@H](C(N)=O)CC4)c3n2)C1 [Example 711, (1S,4s)-4-(2-((R)-1-acetylpiperidin-3-ylamino)-8-(2,4-dichloro-6-fluorophenylamino)-9H-purin-9-yl)cyclohexanecarboxamide] | IC50 [1]: > 1000 nM
18 |  | COC(=O)N1CCCC(Nc2ncc3nc(Nc4c(F)ccc(Cl)c4F)n([C@H]4CC[C@@H](C(N)=O)CC4)c3n2)C1 (stereo partly drawn) [Example 413, (R)-methyl 3-(9-((1s,4S)-4-carbamoylcyclohexyl)-8-(3-chloro-2,6-difluorophenylamino)-9H-purin-2-ylamino)piperidine-1-carboxylate] | IC50 [2]: > 1000 nM
19 |  | C[C@]1(C(N)=O)CC[C@@H](n2c(Nc3c(Cl)cc(Cl)cc3Cl)nc3cnc(N[C@H]4CCOC[C@H]4F)nc32)CC1 [Example 719, (1R,4s)-4-(2-((3S,4S)-3-fluorotetrahydro-2H-pyran-4-ylamino)-8-(2,4,6-trichlorophenylamino)-9H-purin-9-yl)-1-methylcyclohexanecarboxamide] | IC50 [1]: < 250 nM
20 | > 1000 | CC(C)(C)OC(=O)N1CC[C@H](Nc2ncc3nc(Nc4c(F)cc(F)cc4F)n([C@H]4CC[C@@H](C(N)=O)CC4)c3n2)[C@H](F)C1 [Example 127, (3R,4S)-tert-butyl 4-(9-((1s,4R)-4-carbamoylcyclohexyl)-8-(2,4,6-trifluorophenylamino)-9H-purin-2-ylamino)-3-fluoropiperidine-1-carboxylate] | 
21 | > 1000 | NC(=O)[C@H]1CC[C@@H](n2c(Nc3c(Cl)cccc3Cl)nc3cnc(NC4CC5(COC5)C4)nc32)CC1 [Example 174, (1s,4s)-4-(2-(2-oxaspiro[3.3]heptan-6-ylamino)-8-(2,6-dichlorophenylamino)-9H-purin-9-yl)cyclohexanecarboxamide] | 
